Values quoted from earlier work in US7638651B2, “Substituted cyclohexanones” (Auspex Pharmaceuticals, priority 2007, dated 2009).

Assays:
[1] = for half-life: ketamine: depending on the mode of administration

Row | SMILES | potency relative to the parent drug (as potent as the parent drug (ketamine)) | half-life [1] | blood to plasma ratio ([1]; in vivo) | potency relative to the R-(−) isomer (more potent than the R-(−) isomer)
1 | NC1(c2ccccc2Cl)CCCCC1=O (centres unmarked) [Norketamine, N-desmethylketamine] | roughly one third | about five | – | –
2 | CNC1(c2ccccc2Cl)CCCCC1=O (centres unmarked) [Ketamine] | – | two to about five | ~0.82 | –
3 | CN[C@]1(c2ccccc2Cl)CCCCC1=O (single isomer, unassigned) [S-(+) isomer] | – | – | – | approximately four
